Values of other authors as cited in article PMC8513935.

Columns and labels:
[1] = experimental, compiled by the authors from the literature (the ESI cites the sources); details: 25 C
[2] = derived by the authors as gas->solvent minus gas->water (a hypothetical dry solvent; the ESI), not a two-phase measurement; details: 25 C
[3] = log P octanol/water from commercial databases, averaged (the ESI); details: Octanol (wet), 25 C

log K of transfer, gas to solvent ([1]; Hexadecane) | log K of transfer, gas to solvent ([1]; Water) | log K of transfer, water to solvent ([2]; Hexadecane) | log K of transfer, water to solvent [3] | SMILES | log K of transfer, gas to solvent ([1]; Ethanol) | log K of transfer, gas to solvent ([1]; Methanol) | log K of transfer, gas to solvent ([1]; Propan-2-ol) | log K of transfer, water to solvent ([2]; Ethanol) | log K of transfer, water to solvent ([2]; Methanol) | log K of transfer, water to solvent ([2]; Propan-2-ol) | also measured
2.58 log10 K | -1.84 log10 K | 4.42 log10 K | 3.6 log10 K | CCC(C)CC |  |  |  |  |  |  | log K of transfer, gas to solvent ([1]; Butan-1-ol): 2.34 log10 K; log K of transfer, gas to solvent ([1]; Pentan-1-ol): 2.44 log10 K; log K of transfer, water to solvent ([2]; Butan-1-ol): 4.18 log10 K; log K of transfer, water to solvent ([2]; Pentan-1-ol): 4.28 log10 K
3.54 log10 K | 0.89 log10 K | 2.65 log10 K | 2.52 log10 K | CC(C)SC(C)C |  |  |  |  |  |  | 
2.48 log10 K | -0.88 log10 K | 3.36 log10 K | 3 log10 K | C1CCCC1 | 2.04 log10 K | 1.92 log10 K | 2.12 log10 K | 2.92 log10 K | 2.8 log10 K | 3 log10 K | log K of transfer, gas to solvent ([1]; Heptan-1-ol): 2.27 log10 K; log K of transfer, gas to solvent ([1]; Hexane): 2.71 log10 K; log K of transfer, gas to solvent ([1]; Propan-1-ol): 2.12 log10 K; log K of transfer, water to solvent ([2]; Heptan-1-ol): 3.15 log10 K; log K of transfer, water to solvent ([2]; Hexane): 3.59 log10 K; log K of transfer, water to solvent ([2]; Propan-1-ol): 3 log10 K

SMILES | log K of transfer, gas to solvent ([1]; Hexadecane) | log K of transfer, gas to solvent ([1]; Water) | log K of transfer, water to solvent ([2]; Hexadecane) | log K of transfer, water to solvent [3] | log K of transfer, gas to solvent ([1]; Ethanol) | log K of transfer, gas to solvent ([1]; Methanol) | log K of transfer, gas to solvent ([1]; Propan-2-ol) | log K of transfer, water to solvent ([2]; Ethanol) | log K of transfer, water to solvent ([2]; Methanol) | log K of transfer, water to solvent ([2]; Propan-2-ol) | also measured
CCCCc1ccccc1 | 4.73 log10 K | 0.29 log10 K | 4.44 log10 K | 4.26 log10 K | 4.2 log10 K | 4.28 log10 K | 4.35 log10 K | 3.91 log10 K | 3.99 log10 K | 4.06 log10 K | log K of transfer, gas to solvent ([1]; Tetrahydrofuran): 5.38 log10 K; log K of transfer, water to solvent ([2]; Tetrahydrofuran): 5.09 log10 K
